Where a name gives a salt, the structure may show the parent alone. Read-outs that look alike come from different tables or passages of the source.
Assays:
[1] = system: TLR2 induced IL-6 in peripheral blood mononuclear cells (PBMCs); assay: PBMC TLR2 Induced IL-6 Assay; format: cell-based, human; conditions: IL-6 by ELISA; for EC50: read-out: Cell EC50; for IC50: read-out: Cell IC50
Method in brief: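 Lipoteichoic acid at 10 µg/ml served as TLR2 stimulus for 5 hours, following a 30-minute compound pretreatment at 37° C. Cells were Ficoll-isolated human PBMCs, 250000 cells/well, cultured in RPMI plus 10% heat-inactivated FCS.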

IRAK4 = IRAK4 (Homo sapiens (Human), UniProt Q9NWZ3); assay: IRAK4 Inhibition Assay; format: biochemical; conditions: ATP 500 μM, read-out: IRAK4 IC50
Method in brief: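 Mobility-shift readout: fluorescent substrate and phosphoproduct resolved electrophoretically on Caliper LabChip 3000 after EDTA quench (35 mM). Enzyme reaction of IRAK4, substrates and test compound ran 60 min at room temperature.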

[2] = Homo sapiens, PBMC, PBMC TLR2 Induced IL-6 Assay, lipoteichoic acid stimulation
[3] = Homo sapiens, PBMC, human PBMCs, lipoteichoic acid stimulated
[4] = human PBMCs, lipoteichoic acid stimulated

Sequence of IRAK4 (Q9NWZ3 whole entry, species assumed): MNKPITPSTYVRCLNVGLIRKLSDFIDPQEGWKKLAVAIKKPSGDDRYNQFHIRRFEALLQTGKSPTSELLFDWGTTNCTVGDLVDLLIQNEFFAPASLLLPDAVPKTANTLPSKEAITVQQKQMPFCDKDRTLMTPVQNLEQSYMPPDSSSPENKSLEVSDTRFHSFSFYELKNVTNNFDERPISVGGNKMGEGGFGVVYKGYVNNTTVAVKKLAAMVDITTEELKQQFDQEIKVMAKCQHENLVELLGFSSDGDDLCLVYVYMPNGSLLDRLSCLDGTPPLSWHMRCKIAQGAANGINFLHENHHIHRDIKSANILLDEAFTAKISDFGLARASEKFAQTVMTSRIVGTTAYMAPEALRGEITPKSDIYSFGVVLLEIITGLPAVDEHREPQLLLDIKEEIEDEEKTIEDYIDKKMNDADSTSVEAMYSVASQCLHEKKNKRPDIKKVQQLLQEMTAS

| Structure (SMILES) | EC50 [1, 2] [nM] | IC50 (IRAK4; IRAK4 Inhibition Assay) [nM] | IC50 (IRAK4; IRAK4 0.6 nM) [nM] | also measured |
| --- | --- | --- | --- | --- |
| CCC(O)(CC)[C@H](F)CNC(=O)c1cnc(-n2ncc3cncnc32)cc1NC(C)C [Example 149, (R)—N-(3-ethyl-2-fluoro-3-hydroxypentyl)-4-(isopropylamino)-6-(1H-pyrazolo[3,4-d]pyrimidin-1-yl)nicotinamide] | 239 | 9.3 | – | – |
| CC(C)(O)[C@H]1CC[C@H](NC(=O)c2cnc(-n3ccc4cc(F)cnc43)cc2NC2CC2)CC1 [Example 428] | – | – | 4.6 | EC50 [1, 3]: 361 nM |
| CC(C)(O)CCNC(=O)c1cnc(-n2ccc3cc(Cl)cnc32)cc1NC1CCOCC1 [Example 36, 6-(5-chloro-1H-pyrrolo[2,3-b]pyridin-1-yl)-N-(3-hydroxy-3-methylbutyl)-4-((tetrahydro-2H-pyran-4-yl)amino)nicotinamide] | 133 | 3.1 | – | – |
| CC(C)(O)[C@H](F)CNC(=O)c1cnc(-n2ccc3cc(C#N)cnc32)cc1NC1CCC(F)C1 (single isomer, unassigned) [Example 109] | 45 | 1 | – | – |
| CCN(CC)C(=O)NCc1cnc2c(ccn2-c2cc(NC(C)C)c(C(=O)NC[C@@H](F)C(C)(C)O)cn2)c1 [Example 500] | – | – | 13.2 | IC50 [1, 3]: 546 nM |
| CC(C)Nc1cc(-n2ncc3cc(C#N)cnc32)ncc1C(=O)NCCC(C)(C)O [Example 146, 6-(5-cyano-1H-pyrazolo[3,4-b]pyridin-1-yl)-N-(3-hydroxy-3-methylbutyl)-4-(isopropylamino)nicotinamide] | 267 | 6.5 | – | – |
| CC(C)Nc1cc(-n2ncc3cc(C#N)cnc32)ncc1C(=O)NC1CCN(C(=O)C2CN(S(C)(=O)=O)C2)CC1 [Example 584] | – | – | 10 | EC50 [1, 3]: 209 nM; IC50 [1, 3]: 508 nM |
| CS(=O)(=O)[C@H]1CC[C@H](NC(=O)c2cnc(-n3ccc4cc(C#N)cnc43)cc2NC2CCOCC2)CC1 [Example 103, 6-(5-Cyano-1H-pyrrolo[2,3-b]pyridin-1-yl)-N-((trans)-4-(methylsulfonyl)cyclohexyl)-4-((tetrahydro-2H-pyran-4-yl)amino)nicotinamide] | 125 | 3.5 | – | – |
| CC(C)Nc1cc(-n2ccc3cc(C#N)cnc32)ncc1C(=O)NCCNS(=O)(=O)N1CCOCC1 [Example 452] | – | – | 5.2 | EC50 [1, 3]: 700 nM; IC50 [1, 3]: 252 nM |
| CC(C)(O)[C@H](F)CNC(=O)c1cnc(-n2ncc3cc(C#N)cnc32)cc1NCCNS(C)(=O)=O [Example 586] | – | – | 9.7 | IC50 [1, 3]: 259 nM |
| CC(C)Nc1cc(-n2ccc3cc(C#N)cnc32)ncc1C(=O)NCC(=O)N1CCN(C)CC1 [Example 467] | – | – | 2.3 | EC50 [1, 3]: 26 nM; IC50 [1, 3]: 100 nM |
| CCCn1cc(Nc2cc(-n3ccc4cc(C#N)cnc43)ncc2C(=O)NC[C@@H](F)C(C)(C)O)cn1 [Example 383] | – | 1.4 | – | IC50 [1, 2]: 113 nM |
| CC(C)Nc1cc(-n2ncc3cc(C#N)cnc32)ncc1C(=O)NCCCc1ncn[nH]1 [Example 213] | 428 | 14.8 | – | – |
| CC(C)(O)[C@H](F)CNC(=O)c1cnc(-n2ccc3cc(C#N)cnc32)cc1NC1CCOCC1 [Example 3, (R)-6-(5-cyano-1H-pyrrolo[2,3-b]pyridin-1-yl)-N-(2-fluoro-3-hydroxy-3-methylbutyl)-4-((tetrahydro-2H-pyran-4-yl)amino)nicotinamide] | 11 | 1 | – | IC50 [1, 2]: 48 nM |
| CC(C)(O)[C@H](F)CNC(=O)c1cnc(-n2ncc3cc(C#N)cnc32)cc1NC12CC(C1)C2 [Example 635] | – | – | 1.8 | IC50 [1, 3]: 375 nM |
| CC(C)(O)[C@H](F)CNC(=O)c1cnc(-n2ncc3cc(Cl)cnc32)cc1Nc1cnn(CC(F)(F)F)c1 [Example 354] | – | 1.9 | – | IC50 [1, 2]: 115 nM |
| CC(C)C(O)CNc1cc(-n2ncc3cc(Cl)cnc32)ncc1C(=O)NC[C@@H](F)C(C)(C)O (single isomer, unassigned) [Example 596] | – | – | 18.2 | IC50 [1, 4]: 578 nM |
| CC(C)Nc1cc(-n2ccc3cncnc32)ncc1C(=O)NC[C@@H](F)C(C)(C)O [Example 39, (R)—N-(2-fluoro-3-hydroxy-3-methylbutyl)-4-(isopropylamino)-6-(7H-pyrrolo[2,3-d]pyrimidin-7-yl)nicotinamide] | 151 | 1.1 | – | IC50 [1, 2]: 151 nM |
| CC(CCO)Nc1cc(-n2ccc3cc(C#N)cnc32)ncc1C(=O)NC[C@@H](F)C(C)(C)O (single isomer, unassigned) [Example 21] | 51 | 2.3 | – | – |

| Structure (SMILES) | EC50 [1, 2] [nM] | IC50 (IRAK4; IRAK4 Inhibition Assay) [nM] | IC50 (IRAK4; IRAK4 0.6 nM) [nM] | also measured |
| --- | --- | --- | --- | --- |
| CC(C)(O)[C@H](F)CNC(=O)c1cnc(-n2ccc3cc(C#N)cnc32)cc1N[C@@H]1CCN(C(=O)CC#N)C1 [Example 477] | – | – | 2.9 | EC50 [1, 3]: 301 nM; IC50 [1, 3]: 1300 nM |
| CCCNC(=O)c1cnc(-n2ncc3cc(C#N)c(N)nc32)cc1NC(C)C [Example 326] | – | 11.4 | – | IC50 [1, 2]: 30 nM |
| CC(C)Nc1cc(-n2ccc3cc(C#N)cnc32)ncc1C(=O)NCCNS(C)(=O)=O [Example 63, 6-(5-cyano-1H-pyrrolo[2,3-b]pyridin-1-yl)-4-(isopropylamino)-N-(2-(methylsulfonamido)ethyl)nicotinamide] | 12 | 4.1 | – | – |
| CC(C)Nc1cc(-n2ncc3cc(F)cnc32)ncc1C(=O)NC[C@@H](F)C(C)(C)O [Example 157, (R)-6-(5-fluoro-1H-pyrazolo[3,4-b]pyridin-1-yl)-N-(2-fluoro-3-hydroxy-3-methylbutyl)-4-(isopropylamino) nicotinamide] | 97 | 5.3 | – | – |
| CC(C)Nc1cc(-n2ccc3cc(C#N)cnc32)ncc1C(=O)NCCC1(O)CCCC1 [Example 487] | – | – | 2 | EC50 [1, 3]: 34 nM; IC50 [1, 3]: 111 nM |
| CC(C)(O)[C@H](F)CNC(=O)c1cnc(-n2ncc3cc(C#N)cnc32)cc1NCC(F)(F)F [Example 147, (R)-6-(5-cyano-1H-pyrazolo[3,4-b]pyridin-1-yl)-N-(2-fluoro-3-hydroxy-3-methylbutyl)-4-((2,2,2-trifluoroethyl)amino)nicotinamide] | 338 | 11.9 | – | – |
| C[C@@H](CO)Nc1cc(-n2ccc3cc(F)cnc32)ncc1C(=O)N[C@H]1CC[C@H](C(C)(C)O)CC1 [Example 432] | – | – | 2.1 | EC50 [1, 3]: 80 nM |
| Cn1nccc1Nc1cc(-n2ncc3cc(C#N)cnc32)ncc1C(=O)NC[C@@H](F)C(C)(C)O [Example 409] | – | – | 17.5 | EC50 [1, 3]: 463 nM |
| CC(C)(O)[C@H](F)CNC(=O)c1cnc(-n2cnc3cc(C#N)cnc32)cc1Nc1cnn(C(F)F)c1 [Example 401] | – | – | 5.7 | IC50 [1, 3]: 485 nM |
| CC(C)(O)[C@H](F)CNC(=O)c1cnc(-n2cnc3cc(Cl)cnc32)cc1Nc1cnn(CC(F)F)c1 [Example 359] | – | 1.3 | – | IC50 [1, 2]: 84 nM |
| CC(C)(C)CNc1cc(-n2ncc3cc(C#N)cnc32)ncc1C(=O)NC[C@@H](F)C(C)(C)O [Example 576] | – | – | 5.8 | IC50 [1, 3]: 153 nM |
| CC(C)(O)[C@H](F)CNC(=O)c1cnc(-n2ccc3cc(C#N)cnc32)cc1NCC1COC1 [Example 29, (R)-6-(5-cyano-1H-pyrrolo[2,3-b]pyridin-1-yl)-N-(2-fluoro-3-hydroxy-3-methylbutyl)-4-((oxetan-3-ylmethyl)amino) nicotinamide] | 141 | 3.7 | – | – |
| CC1(Nc2cc(-n3ccc4cc(C#N)cnc43)ncc2C(=O)NC[C@@H](F)C(C)(C)O)CC1 [Example 17, (R)-6-(5-cyano-1H-pyrrolo[2,3-b]pyridin-1-yl)-N-(2-fluoro-3-hydroxy-3-methylbutyl)-4-((1-methylcyclopropyl)amino)nicotinamide] | 42 | 1.2 | – | – |
| CC(C)Nc1cc(-n2ncc3cc(C#N)cnc32)ncc1C(=O)Nc1cnc(N2CCOCC2)nc1 [Example 224] | 303 | 6.7 | – | IC50 [1, 2]: 159 nM |
| CC(C)Nc1cc(-n2ncc3cc(C#N)cnc32)ncc1C(=O)NC[C@@H](F)C(C)(C)F [Example 308] | – | 3 | – | IC50 [1, 2]: 73 nM |
| CC(C)Nc1cc(-n2ncc3cc(C#N)cnc32)ncc1C(=O)NC[C@@H](F)C(C)(C)O [Example 192, (R)-6-(5-Cyano-1H-pyrazolo[3,4-b]pyridin-1-yl)-N-(2-fluoro-3-hydroxy-3-methylbutyl)-4-(isopropylamino)nicotinamide, hydrochloride] | – | – | – | EC50 ([1]; PBMC TLR2 Induced IL-6 Assay, lipoteichoic acid stimulation, hydrochloride): 120 nM; IC50 (IRAK4; IRAK4 Inhibition Assay, hydrochloride): 2.6 nM |
| CC(C)(O)[C@H](F)CNC(=O)c1cnc(-n2ccc3cc(C#N)cnc32)cc1NC1COCC1(F)F (single isomer, unassigned) [Example 485] | – | – | 8.7 | EC50 [1, 3]: 198 nM; IC50 [1, 4]: 1080 nM |
| CC(C)Nc1cc(-n2ccc3cc(CNC(=O)OC(C)C)cnc32)ncc1C(=O)NC[C@@H](F)C(C)(C)O [Example 502] | – | – | 4.8 | IC50 [1, 3]: 366 nM |
| CC(C)(O)[C@H](F)CNC(=O)c1cnc(-n2ncc3cc(C#N)cnc32)cc1N[C@@H]1CCN(c2ncc(F)cn2)C1 [Example 532, 6-(5-Cyano-1H-pyrazolo[3,4-b]pyridin-1-yl)-N—((R)-2-fluoro-3-hydroxy-3-methylbutyl)-4-(((R)-1-(5-fluoropyrimidin-2-yl)pyrrolidin-3-yl)amino)nicotinamide] | – | – | 5.5 | EC50 [1, 4]: 127 nM |
